Test results taken from USRE32300E, “Basic amino or ammonium antimicrobial agent-polyethylene glycol ester surfactant-betaine and/or amine oxide surfactant compositions and method of use thereof” (Sterling Drug Inc., priority 1985, dated 1986).

System: Staphylococcus aureus ATCC 6538
Test: serial dilution test against Staphylococcus aureus ATCC 6538 (compatibility of antimicrobial agents with prototype vehicle)
Assay type: cell-based
Conditions: Id expressed as free base, IVa-IVc as cation (A=Br)
Procedure: Compatability of the antimicrobial agents of Formula Id, Formula IIa, Formula IVa (A=Br), Formula IVb (A=Br) and Formula IVc (A=Br) with a prototype vehicle of the invention was tested by a serial dilution test against Staphylococcus aureus ATCC 6538. Volumes of two milliliters were used. Dilutions were in tryptosephosphate broth. Incubation was for 16-18 hours at 37° C. Growth was verified with 2,3,5-triphenyltetrazoliumchloride. The inoculum was 1.8×10^5 viable cells per tube. There follows the formula of the prototype vehicle.

Minimum Inhibitory Concentration (MIC) (added vehicle 125.0 μg/ml) [µg/mL] | Minimum Inhibitory Concentration (MIC) (added vehicle 250.0 μg/ml) [µg/mL] | Minimum Inhibitory Concentration (MIC) (added vehicle 500.0 μg/ml) [µg/mL] | Minimum Inhibitory Concentration (MIC) (added vehicle 2000.0 μg/ml) [µg/mL] | Minimum Inhibitory Concentration (MIC) (added vehicle 8000.0 μg/ml) [µg/mL] | Minimum Inhibitory Concentration (MIC) (added vehicle 0 μg/ml) [µg/mL] | Minimum Inhibitory Concentration (MIC) (added vehicle 15.6 μg/ml) [µg/mL] | Minimum Inhibitory Concentration (MIC) (added vehicle 31.2 μg/ml) [µg/mL] | Minimum Inhibitory Concentration (MIC) (added vehicle 62.5 μg/ml) [µg/mL] | Structure (SMILES)
0.10 | 0.10 | 0.10 | 0.10 | 0.10 |  |  |  |  | CCCCCCCNc1cc[n+](CCCCCCCCCCCC[n+]2ccc(NCCCCCCC)cc2)cc1 [Formula IVa]
0.5 |  |  |  |  | 0.5 | 0.5 | 0.5 | 0.5 | CCCCCCCCNc1cc[n+](CCCCCCCCCC[n+]2ccc(NCCCCCCCC)cc2)cc1 [Formula IVb]
